System: ATF4 luciferase reporter (human full-length ATF4 5'-UTR fused to firefly luciferase) in HEK293T cells
Assay: ATF4-Luc assay (in vitro model of VWMD): HEK293T cells carrying ATF4 luciferase reporter, tunicamycin-treated
Assay type: cell-based
Conditions: Homo sapiens, HEK-293T, 1 μg/mL tunicamycin, 7 hours, One Glo luminescence
In short: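 Stable HEK293T line with human ATF4 5′-UTR–firefly luciferase reporter treated with 1 μg/mL tunicamycin plus 200 nM compound for 7 h. Luminescence read; EC50 derived.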

SMILES: COc1ncc(OCC(=O)NC23CC(NC(=O)[C@H]4CC(=O)c5cc(Cl)ccc5O4)(C2)C3)cn1 [Compound 333, (2R)-6-chloro-N-(3-{2-[(2-methoxypyrimidin-5-yl)oxy]acetamido}bicyclo[1.1.1]pentan-1-yl)-4-oxo-3,4-dihydro-2H-1-benzopyran-2-carboxamide]
- EC50: 250 to 500 nM

SMILES: O=C(COc1ccc(C(F)(F)F)nc1)NC12CC(NC(=O)[C@@H]3CC(=O)c4cc(Cl)ccc4O3)(C1)C2 [Compound 335, (2S)-6-chloro-4-oxo-N-[3-(2-{[6-(trifluoromethyl)pyridin-3-yl]oxy}acetamido)bicyclo[1.1.1]pentan-1-yl]-3,4-dihydro-2H-1-benzopyran-2-carboxamide]
- EC50: 50 to 250 nM

SMILES: O=C(COc1ccc(Cl)c(F)c1)NC12CC(NC(=O)C3CC(NCC(F)(F)F)c4cc(Cl)ccc4O3)(C1)C2 (stereo not drawn) [Compound 336, 6-chloro-N-{3-[2-(4-chloro-3-fluorophenoxy)acetamido]bicyclo[1.1.1]pentan-1-yl}-4-[(2,2,2-trifluoroethyl)amino]-3,4-dihydro-2H-1-benzopyran-2-carboxamide]
- EC50: 250 to 500 nM

SMILES: O=C(COc1ccc(Cl)c(F)c1)NC12CCC(NC(=O)C3CC(O)c4cc(Cl)ccc4O3)(CC1)CC2 (stereo not drawn) [Compound 337, 6-chloro-N-{4-[2-(4-chloro-3-fluorophenoxy)acetamido]bicyclo[2.2.2]octan-1-yl}-4-hydroxy-3,4-dihydro-2H-1-benzopyran-2-carboxamide]
- EC50: < 10 nM

SMILES: O=C(COc1ccc(Cl)c(F)c1)NC12CC(NC(=O)C3CC(NC4(CO)CC4)c4cc(Cl)ccc4O3)(C1)C2 (stereo not drawn) [Compound 339, 6-chloro-N-{3-[2-(4-chloro-3-fluorophenoxy)acetamido]bicyclo[1.1.1]pentan-1-yl}-4-{[1-(hydroxymethyl)cyclopropyl]amino}-3,4-dihydro-2H-1-benzopyran-2-carboxamide]
- EC50: 10 to 50 nM

SMILES: Cc1ccc2oc(C(=O)NC34CC(NC(=O)COc5ccc(Cl)c(F)c5)(C3)C4)cc(=O)c2c1 [Compound 341, N-{3-[2-(4-chloro-3-fluorophenoxy)acetamido]bicyclo[1.1.1]pentan-1-yl}-6-methyl-4-oxo-4H-1-benzopyran-2-carboxamide]
- EC50: < 10 nM

SMILES: O=C(COc1ccc(Cl)c(Cl)c1)NC12CC(NC(=O)[C@@H]3CC(=O)c4cc(F)c(F)cc4O3)(C1)C2 [Compound 342, (2S)—N-{3-[2-(3,4-dichlorophenoxy)acetamido]bicyclo[1.1.1]pentan-1-yl}-6,7-difluoro-4-oxo-3,4-dihydro-2H-1-benzopyran-2-carboxamide]
- EC50: 10 to 50 nM

SMILES: Cc1csc(C(=O)NC23CCC(NC(=O)[C@H]4C[C@@H](O)c5cc(Cl)ccc5O4)(CC2)[C@@H](O)C3)n1 [Compound 344, N-[(3S)-4-{[(2R,4R)-6-chloro-4-hydroxy-3,4-dihydro-2H-1-benzopyran-2-carbonyl]amino}-3-hydroxybicyclo[2.2.2]octan-1-yl]-4-methyl-1,3-thiazole-2-carboxamide]
- EC50: 50 to 250 nM

SMILES: O=C(COc1ccc(Cl)c(F)c1)NC12CC(NC(=O)C3COc4cc(Cl)ccc4C3)(C1)C2 (stereo not drawn) [Compound 345, 7-chloro-N-{3-[2-(4-chloro-3-fluorophenoxy)acetamido]bicyclo[1.1.1]pentan-1-yl}-3,4-dihydro-2H-1-benzopyran-3-carboxamide]
- EC50: > 2000 nM

SMILES: O=C(COc1ccc(Cl)c(F)c1)NC12CC(NC(=O)c3cc(=O)c4cc(O)ccc4o3)(C1)C2 [Compound 346, N-{3-[2-(4-chloro-3-fluorophenoxy)acetamido]bicyclo[1.1.1]pentan-1-yl}-6-hydroxy-4-oxo-4H-1-benzopyran-2-carboxamide]
- EC50: 500 to 2000 nM

SMILES: Cc1cc2c(cc1F)C(O)CC(C(=O)NC13CC(NC(=O)COc4ccc(Cl)c(F)c4)(C1)C3)O2 (stereo not drawn) [Compound 347, N-{3-[2-(4-chloro-3-fluorophenoxy)acetamido]bicyclo[1.1.1]pentan-1-yl}-6-fluoro-4-hydroxy-7-methyl-3,4-dihydro-2H-1-benzopyran-2-carboxamide]
- EC50: < 10 nM

SMILES: CC(C)(O)CN1C[C@@H](C(=O)NC23CC(NC(=O)COc4ccc(Cl)c(F)c4)(C2)C3)Oc2ccc(Cl)cc21 [Compound 348, (2S)-6-chloro-N-{3-[2-(4-chloro-3-fluorophenoxy)acetamido]bicyclo[1.1.1]pentan-1-yl}-4-(2-hydroxy-2-methylpropyl)-3,4-dihydro-2H-1,4-benzoxazine-2-carboxamide]
- EC50: 50 to 250 nM

SMILES: O=C(COc1ccc(Cl)c(F)c1)NC12CC(NC(=O)C3CC(NC4COC4)c4cc(Cl)ccc4O3)(C1)C2 (stereo not drawn) [Compound 349, 6-chloro-N-{3-[2-(4-chloro-3-fluorophenoxy)acetamido]bicyclo[1.1.1]pentan-1-yl}-4-[(oxetan-3-yl)amino]-3,4-dihydro-2H-1-benzopyran-2-carboxamide]
- EC50: 10 to 50 nM

SMILES: O=C(COc1ccc(Cl)c(F)c1)NC12CC(NC(=O)C3(F)CC(O)c4cc(Cl)ccc4O3)(C1)C2 (stereo not drawn) [Compound 350, 6-chloro-N-{3-[2-(4-chloro-3-fluorophenoxy)acetamido]bicyclo[1.1.1]pentan-1-yl}-2-fluoro-4-hydroxy-3,4-dihydro-2H-1-benzopyran-2-carboxamide]
- EC50: < 10 nM

SMILES: O=C(COc1cc(F)c2cn[nH]c2c1)NC12CC(NC(=O)[C@H]3C[C@@H](O)c4cc(Cl)ccc4O3)(C1)C2 [Compound 351, (2R,4R)-6-chloro-N-(3-{2-[(4-fluoro-1H-indazol-6-yl)oxy]acetamido}bicyclo[1.1.1]pentan-1-yl)-4-hydroxy-3,4-dihydro-2H-1-benzopyran-2-carboxamide]
- EC50: < 10 nM

SMILES: O=C(NC12CCC(NC(=O)[C@H]3CC(=O)c4cc(Cl)ccc4O3)(CC1)C[C@@H]2O)c1cnc(C(F)F)cn1 [Compound 352, N-[(2S)-4-{[(2R)-6-chloro-4-oxo-3,4-dihydro-2H-1-benzopyran-2-carbonyl]amino}-2-hydroxybicyclo[2.2.2]octan-1-yl]-5-(difluoromethyl)pyrazine-2-carboxamide]
- EC50: 500 to 2000 nM

SMILES: O=C(NC12CCC(NC(=O)[C@H]3C[C@@H](O)c4cc(Cl)ccc4O3)(CC1)C[C@@H]2O)c1cnc(C(F)F)cn1 [Compound 353, N-[(2S)-4-{[(2R,4R)-6-chloro-4-hydroxy-3,4-dihydro-2H-1-benzopyran-2-carbonyl]amino}-2-hydroxybicyclo[2.2.2]octan-1-yl]-5-(difluoromethyl)pyrazine-2-carboxamide]
- EC50: 50 to 250 nM

SMILES: O=C(COc1cc(F)c2cn[nH]c2c1)NC12CCC(NC(=O)[C@H]3C[C@@H](O)c4cc(Cl)ccc4O3)(CC1)[C@@H](O)C2 [Compound 355, (2R,4R)-6-chloro-N-[(2S)-4-{2-[(4-fluoro-1H-indazol-6-yl)oxy]acetamido}-2-hydroxybicyclo[2.2.2]octan-1-yl]-4-hydroxy-3,4-dihydro-2H-1-benzopyran-2-carboxamide]
- EC50: < 10 nM

SMILES: Cc1csc(C(=O)NC23CCC(NC(=O)[C@H]4C[C@@H](O)c5cc(Cl)ccc5O4)(CC2)C[C@@H]3O)n1 [Compound 356, N-[(2S)-4-{[(2R,4R)-6-chloro-4-hydroxy-3,4-dihydro-2H-1-benzopyran-2-carbonyl]amino}-2-hydroxybicyclo[2.2.2]octan-1-yl]-4-methyl-1,3-thiazole-2-carboxamide]
- EC50: 50 to 250 nM

SMILES: O=C(NC12CCC(NC(=O)[C@H]3CC(=O)c4cc(Cl)ccc4O3)(CC1)CC2)c1ccc(OC(F)(F)F)cn1 [Compound 357, N-(4-{[(2R)-6-chloro-4-oxo-3,4-dihydro-2H-1-benzopyran-2-carbonyl]amino}bicyclo[2.2.2]octan-1-yl)-5-(trifluoromethoxy)pyridine-2-carboxamide]
- EC50: 500 to 2000 nM

SMILES: O=C(NC12CCC(NC(=O)[C@@H]3CC(=O)c4cc(Cl)ccc4O3)(CC1)CC2)c1ccc(OC(F)(F)F)cn1 [Compound 358, N-(4-{[(2S)-6-chloro-4-oxo-3,4-dihydro-2H-1-benzopyran-2-carbonyl]amino}bicyclo[2.2.2]octan-1-yl)-5-(trifluoromethoxy)pyridine-2-carboxamide]
- EC50: > 2000 nM

SMILES: Cc1cc(OCC(=O)NC23CC(NC(=O)[C@H]4C[C@@H](O)c5cc(F)c(F)cc5O4)(C2)C3)ccc1F [Compound 359, (2R,4R)-6,7-difluoro-N-{3-[2-(4-fluoro-3-methylphenoxy)acetamido]bicyclo[1.1.1]pentan-1-yl}-4-hydroxy-3,4-dihydro-2H-1-benzopyran-2-carboxamide]
- EC50: < 10 nM

SMILES: Cc1cc(OCC(=O)NC23CC(NC(=O)[C@@H]4C[C@H](O)c5cc(Cl)ccc5O4)(C2)C3)ccc1F [Compound 360, (2S,4S)-6-chloro-N-{3-[2-(4-fluoro-3-methylphenoxy)acetamido]bicyclo[1.1.1]pentan-1-yl}-4-hydroxy-3,4-dihydro-2H-1-benzopyran-2-carboxamide]
- EC50: 10 to 50 nM

SMILES: O=C(NC12CCC(NC(=O)[C@H]3C[C@@H](O)c4cc(Cl)ccc4O3)(CC1)CC2)c1ccc(OC(F)(F)F)cn1 [Compound 361, N-(4-{[(2R,4R)-6-chloro-4-hydroxy-3,4-dihydro-2H-1-benzopyran-2-carbonyl]amino}bicyclo[2.2.2]octan-1-yl)-5-(trifluoromethoxy)pyridine-2-carboxamide]
- EC50: 50 to 250 nM

SMILES: O=C(NC12CCC(NC(=O)[C@@H]3C[C@H](O)c4cc(Cl)ccc4O3)(CC1)CC2)c1ccc(OC(F)(F)F)cn1 [Compound 362, N-(4-{[(2S,4S)-6-chloro-4-hydroxy-3,4-dihydro-2H-1-benzopyran-2-carbonyl]amino}bicyclo[2.2.2]octan-1-yl)-5-(trifluoromethoxy)pyridine-2-carboxamide]
- EC50: 500 to 2000 nM

SMILES: O=C(COc1ccc(Cl)c(F)c1)NC12CCC(NC(=O)C3CC(=O)c4cc(Cl)ccc4O3)(CC1)NC2=O (stereo not drawn) [Compound 363, 6-chloro-N-{4-[2-(4-chloro-3-fluorophenoxy)acetamido]-3-oxo-2-azabicyclo[2.2.2]octan-1-yl}-4-oxo-3,4-dihydro-2H-1-benzopyran-2-carboxamide]
- EC50: 10 to 50 nM

SMILES: O=C(COc1ccc(Cl)c(F)c1)NC12CC(NC(=O)[C@H]3C[C@H](O)c4cc(Cl)c(F)cc4O3)(C1)C2 [Compound 367, (2R,4S)-6-chloro-N-{3-[2-(4-chloro-3-fluorophenoxy)acetamido]bicyclo[1.1.1]pentan-1-yl}-7-fluoro-4-hydroxy-3,4-dihydro-2H-1-benzopyran-2-carboxamide]
- EC50: < 10 nM

Source: patent US20240018133A1, “MODULATORS OF THE INTEGRATED STRESS PATHWAY” (Calico Life Sciences LLC, priority 2019, published 2024)
